{"source": "patent US10154957B2", "about": "“Microneedle device having a peptide therapeutic agent and an amino acid and methods of making and using the same” (3M INNOVATIVE PROPERTIES COMPANY, priority 2011, dated 2018)", "assay": "Percent purity of PTHrP analogue in coating with varying His-HCl concentration, three storage conditions (HPLC)", "assay_type": "physicochemical", "details": "peptide 10 mg/mL in PBS", "protocol": "The protein or polypeptide content in the formulation coated on the microneedle arrays was determined using an Agilent 1100 HPLC system (Agilent Technologies, Wilmington, Del.) equipped with a binary pump, well-plated thermostated autosampler, thermostated column compartment, and a diode array UV detector. A Zorbax 300SB-C8 column (Agilent Technologies, Wilmington, Del.) having a 5 μm particle size and 2.1×150 mm inner diameter was used for the separations. The column was maintained at 50° C. The mobile phase consisted of two eluents. Eluent A was 0.1% TFA (trifluoroacetic acid) in water and eluent B was 0.1% TFA in acetonitrile (Spectrum Chemical, New Brunswick, N.J.). A linear gradient from 80/20 to 50/50 (A/B) was applied over 30 minutes. The flow rate was 0.4 mL/minute and the UV detection wavelength was set at 214 nm. The total run time was 34 minutes and the sample injection volume was 15 μL.\nFive sample formulations were prepared containing 10 mg/mL of [Glu^22,25,Leu^23,28,31,Aib^29,Lys^26,30]hPTHrP(1-34)NH2 and varying concentrations of L-histidine monohydrochloride (His-HCl) in PBS. The concentrations of His-HCl in the sample formulations range from 1 mg/mL to 10 mg/mL. A control formulation was also prepared containing 10 mg/mL of [Glu^22,25,Leu^23,28,31,Aib^29,Lys^26,30]hPTHrP(1-34)NH2 in PBS. […] Microneedle arrays were coated with either the sample or the control formulations. The coating was applied by dropwise addition of 40 μL of the formulation to the portion of the array defined by the octagon shaped pattern of microneedles. The flood coated arrays (both sample and control formulation coated) were dried in an oven at 35° C. for 1.5 hours followed by 30° C. for 15 hours.\nAfter drying, the coated arrays were placed in a storage chamber that was maintained at one of three storage conditions: 40° C./96% RH (storage condition A); 25° C./60% RH (storage condition B); or 5° C./ambient RH. The [Glu^22,25,Leu^23,28,31,Aib^29,Lys^26,30]hPTHrP(1-34)NH2 content of the coated arrays was determined following storage in a chamber for 1 day, 3 days, 7 days, 14 days, 21 days, 28 days, and 2 months. The initial [Glu^22,25,Leu^23,28,31,Aib^29,Lys^26,30]hPTHrP(1-34)NH2 content was also determined using freshly coated arrays (both sample and control formulation coated). The arrays used to determine initial content were stored in a refrigerator at about 4° C. and analyzed within one day of being prepared. At the designated time point, an array was taken from the chamber and washed with PBS (3.5 mL) to remove the coating from the array. An aliquot of the resulting wash solution was analyzed for [Glu^22,25,Leu^23,28,31,Aib^29,Lys^26,30]hPTHrP(1-34)NH2 content using the HPLC method described above. The results were quantified against an external standard of [Glu^22,25,Leu^23,28,31,Aib^29,Lys^26,30]hPTHrP(1-34)NH2. At each time point, the percent purity of [Glu^22,25,Leu^23,28,31,Aib^29,Lys^26,30]hPTHrP(1-34)NH2 in the coating was determined by measuring the peak area for [Glu^22,25,Leu^23,28,31,Aib^29,Lys^26,30]hPTHrP(1-34)NH2 in the selected coating and dividing it by the total peak area measured for all [Glu^22,25,Leu^23,28,31,Aib^29,Lys^26,30]hPTHrP(1-34)NH2 related peaks.", "note": "Marks after values point to notes of the source that are not given here."}
{"substance": "[Glu^22,25,Leu^23,28,31,Aib^29,Lys^26,30]hPTHrP(1-34)NH2", "values": [{"measurement": "Percent Purity of [Glu^22,25, Leu^23,28,31, Aib^29, Lys^26,30]hPTHrP(1-34)NH2", "setting": "Histidine-HCl 1 mg/mL, Storage Condition B (25° C./60% RH), 2 months", "result": 98.1, "unit": "%"}, {"measurement": "Percent Purity of [Glu^22,25, Leu^23,28,31, Aib^29, Lys^26,30]hPTHrP(1-34)NH2", "setting": "Histidine-HCl 1 mg/mL, Storage Condition B (25° C./60% RH), Day 3", "result": 98.7, "unit": "%"}, {"measurement": "Percent Purity of [Glu^22,25, Leu^23,28,31, Aib^29, Lys^26,30]hPTHrP(1-34)NH2", "setting": "Histidine-HCl 1 mg/mL, Storage Condition B (25° C./60% RH), Day 7", "result": 98.8, "unit": "%"}, {"measurement": "Percent Purity of [Glu^22,25, Leu^23,28,31, Aib^29, Lys^26,30]hPTHrP(1-34)NH2", "setting": "Histidine-HCl 1 mg/mL, Storage Condition B (25° C./60% RH), Day 14", "result": 98.7, "unit": "%"}, {"measurement": "Percent Purity of [Glu^22,25, Leu^23,28,31, Aib^29, Lys^26,30]hPTHrP(1-34)NH2", "setting": "Histidine-HCl 1 mg/mL, Storage Condition B (25° C./60% RH), Day 28", "result": 98.8, "unit": "%"}, {"measurement": "Percent Purity of [Glu^22,25, Leu^23,28,31, Aib^29, Lys^26,30]hPTHrP(1-34)NH2", "setting": "Histidine-HCl 1 mg/mL, Storage Condition B (25° C./60% RH), Initial", "result": 99.0, "unit": "%"}, {"measurement": "Percent Purity of [Glu^22,25, Leu^23,28,31, Aib^29, Lys^26,30]hPTHrP(1-34)NH2", "setting": "Histidine-HCl 2 mg/mL, Storage Condition A (40° C./96% RH), Day 1", "result": 98.4, "unit": "%"}, {"measurement": "Percent Purity of [Glu^22,25, Leu^23,28,31, Aib^29, Lys^26,30]hPTHrP(1-34)NH2", "setting": "Histidine-HCl 2 mg/mL, Storage Condition A (40° C./96% RH), Day 3", "result": 97.5, "unit": "%"}, {"measurement": "Percent Purity of [Glu^22,25, Leu^23,28,31, Aib^29, Lys^26,30]hPTHrP(1-34)NH2", "setting": "Histidine-HCl 2 mg/mL, Storage Condition A (40° C./96% RH), Day 7", "result": 83.2, "unit": "%"}, {"measurement": "Percent Purity of [Glu^22,25, Leu^23,28,31, Aib^29, Lys^26,30]hPTHrP(1-34)NH2", "setting": "Histidine-HCl 2 mg/mL, Storage Condition A (40° C./96% RH), Day 14", "result": 50.0, "unit": "%"}, {"measurement": "Percent Purity of [Glu^22,25, Leu^23,28,31, Aib^29, Lys^26,30]hPTHrP(1-34)NH2", "setting": "Histidine-HCl 2 mg/mL, Storage Condition A (40° C./96% RH), Day 21, the sample for analysis contained insoluble impurities", "result": "36.8^(a) percent"}, {"measurement": "Percent Purity of [Glu^22,25, Leu^23,28,31, Aib^29, Lys^26,30]hPTHrP(1-34)NH2", "setting": "Histidine-HCl 2 mg/mL, Storage Condition A (40° C./96% RH), Initial", "result": 99.0, "unit": "%"}, {"measurement": "Percent Purity of [Glu^22,25, Leu^23,28,31, Aib^29, Lys^26,30]hPTHrP(1-34)NH2", "setting": "Histidine-HCl 2 mg/mL, Storage Condition B (25° C./60% RH), 2 months", "result": 98.1, "unit": "%"}, {"measurement": "Percent Purity of [Glu^22,25, Leu^23,28,31, Aib^29, Lys^26,30]hPTHrP(1-34)NH2", "setting": "Histidine-HCl 2 mg/mL, Storage Condition B (25° C./60% RH), Day 3", "result": 98.8, "unit": "%"}, {"measurement": "Percent Purity of [Glu^22,25, Leu^23,28,31, Aib^29, Lys^26,30]hPTHrP(1-34)NH2", "setting": "Histidine-HCl 2 mg/mL, Storage Condition B (25° C./60% RH), Day 7", "result": 98.8, "unit": "%"}, {"measurement": "Percent Purity of [Glu^22,25, Leu^23,28,31, Aib^29, Lys^26,30]hPTHrP(1-34)NH2", "setting": "Histidine-HCl 2 mg/mL, Storage Condition B (25° C./60% RH), Day 14", "result": 98.8, "unit": "%"}, {"measurement": "Percent Purity of [Glu^22,25, Leu^23,28,31, Aib^29, Lys^26,30]hPTHrP(1-34)NH2", "setting": "Histidine-HCl 2 mg/mL, Storage Condition B (25° C./60% RH), Day 28", "result": 98.9, "unit": "%"}, {"measurement": "Percent Purity of [Glu^22,25, Leu^23,28,31, Aib^29, Lys^26,30]hPTHrP(1-34)NH2", "setting": "Histidine-HCl 2 mg/mL, Storage Condition B (25° C./60% RH), Initial", "result": 99.0, "unit": "%"}, {"measurement": "Percent Purity of [Glu^22,25, Leu^23,28,31, Aib^29, Lys^26,30]hPTHrP(1-34)NH2", "setting": "Histidine-HCl 3.3 mg/mL, Storage Condition A (40° C./96% RH), Day 1", "result": 98.6, "unit": "%"}, {"measurement": "Percent Purity of [Glu^22,25, Leu^23,28,31, Aib^29, Lys^26,30]hPTHrP(1-34)NH2", "setting": "Histidine-HCl 3.3 mg/mL, Storage Condition A (40° C./96% RH), Day 3", "result": 97.8, "unit": "%"}, {"measurement": "Percent Purity of [Glu^22,25, Leu^23,28,31, Aib^29, Lys^26,30]hPTHrP(1-34)NH2", "setting": "Histidine-HCl 3.3 mg/mL, Storage Condition A (40° C./96% RH), Day 7", "result": 93.5, "unit": "%"}, {"measurement": "Percent Purity of [Glu^22,25, Leu^23,28,31, Aib^29, Lys^26,30]hPTHrP(1-34)NH2", "setting": "Histidine-HCl 3.3 mg/mL, Storage Condition A (40° C./96% RH), Day 14", "result": 58.3, "unit": "%"}, {"measurement": "Percent Purity of [Glu^22,25, Leu^23,28,31, Aib^29, Lys^26,30]hPTHrP(1-34)NH2", "setting": "Histidine-HCl 3.3 mg/mL, Storage Condition A (40° C./96% RH), Day 21, the sample for analysis contained insoluble impurities", "result": "78.2^(a) percent"}, {"measurement": "Percent Purity of [Glu^22,25, Leu^23,28,31, Aib^29, Lys^26,30]hPTHrP(1-34)NH2", "setting": "Histidine-HCl 3.3 mg/mL, Storage Condition A (40° C./96% RH), Initial", "result": 99.3, "unit": "%"}, {"measurement": "Percent Purity of [Glu^22,25, Leu^23,28,31, Aib^29, Lys^26,30]hPTHrP(1-34)NH2", "setting": "Histidine-HCl 3.3 mg/mL, Storage Condition B (25° C./60% RH), 2 months", "result": 98.5, "unit": "%"}, {"measurement": "Percent Purity of [Glu^22,25, Leu^23,28,31, Aib^29, Lys^26,30]hPTHrP(1-34)NH2", "setting": "Histidine-HCl 3.3 mg/mL, Storage Condition B (25° C./60% RH), Day 3", "result": 98.9, "unit": "%"}, {"measurement": "Percent Purity of [Glu^22,25, Leu^23,28,31, Aib^29, Lys^26,30]hPTHrP(1-34)NH2", "setting": "Histidine-HCl 3.3 mg/mL, Storage Condition B (25° C./60% RH), Day 7", "result": 98.8, "unit": "%"}, {"measurement": "Percent Purity of [Glu^22,25, Leu^23,28,31, Aib^29, Lys^26,30]hPTHrP(1-34)NH2", "setting": "Histidine-HCl 3.3 mg/mL, Storage Condition B (25° C./60% RH), Day 14", "result": 98.9, "unit": "%"}, {"measurement": "Percent Purity of [Glu^22,25, Leu^23,28,31, Aib^29, Lys^26,30]hPTHrP(1-34)NH2", "setting": "Histidine-HCl 3.3 mg/mL, Storage Condition B (25° C./60% RH), Day 28", "result": 98.8, "unit": "%"}]}
